# Assays:
# Bax = assay: Western blotting of Bax, endothelial cells after hypoxia/reoxygenation; assay type: cell-based; details: rat brain endothelial cells, hypoxia 4.5 h/reoxygenation 3 h; tPA 20 mcg/ml alone (model group); T541 400 mcg/ml + tPA 20 mcg/ml
# From the text: (§1) Establishment of rat brain endothelial cell H/R model: rat brain endothelial cells were purchased from ATCC, and then subcultured to 5-6 generations in normal conditions for further experiment. […]
# VE-cadherin = assay: Western blotting of VE-cadherin, cortex of ischemic penumbra; assay type: in vivo, C57BL/6 mice; details: brain tissue 24 hours after administration, sham = 1.00; tPA 10 mg/kg alone; T541 20 mg/kg + tPA 10 mg/kg
# Description: After reperfused for 24 hours, mice were perfused by normal saline; Western blotting analysis was conducted to the penumbra field of infarcted right cerebral cortex. After perfused, mice brain tissue was taken out; cerebellum and prefrontal lobe were cut off; the brain tissue of right brain close to 1 cm of the central joint of left and right hemispheres along the sagittal view; infarcted penumbra field of the rest tissues was cut off along an 45° angle; the cerebral cortex of the penumbra field was peeled off and preserved at low temperature. Right cerebral cortex was taken and added 1×RIPA lysate and a Cocktail protease inhibitor (1:100, Cell Signaling Technology, US) for full pyrolysis and ultrasonic treatment, and then 17000 g were centrifuged for 30 minutes. Supernatant was taken and added 5×loading buffer by volume, boiled for 20 minutes in boiling water, and then preserved at −80° C. Excessive supernatant was taken out and quantified by a BCA protein quantification liquor (ThermoScientific, US) to measure absorbance value at 560 nm of ELIASA and to calculate the protein concentration according to a standard curve. […] The density of electrophoretic strips was analyzed by an image analysis software Quantityone. […]
# [1] = system: mice with carotid artery thrombus; assay: Neurological scoring, 15-score standard, mice; assay type: in vivo, C57BL/6 mice; details: 24 hours after administration; normal = 15, dead = 0; tPA 10 mg/kg alone; T541 20 mg/kg, T141 12 mg/kg, T582 15 mg/kg each + tPA 10 mg/kg
# Description: Neurological scoring was conducted to each group of mice after reperfused for 24 hours based upon scoring standards (15 scores) (Garcia J H et al. Stroke. 1995; 26:627-634.) with slight modification:
# Mice capacity of autonomic activity: mice were put into a 25×15 cm cage to record their motion trails within 3 minutes; mice incapable of moving basically were denoted as 0; mice with little activity and not touching any wall of the cage were denoted as 1; mice touching any […] were denoted as 2; mice touching three walls and above were denoted as 3;
# Mice limbs symmetry experiment: mice tails were lifted to observe the motion trails of their bodies; mice with completely asymmetric bodies were denoted as 0; mice with almost asymmetrical bodies were denoted as 1; mice with moderately asymmetrical bodies were denoted as 2; mice with almost symmetric bodies were denoted as 3;
# Measurement of open field test: free motion of mice was observed; mice without any motion were denoted as 0; mice circling around were denoted as 1; mice tilting to one side to make curvilinear motion were denoted as 2; mice making rectilinear motion were denoted as 3; […]
# Mice neurological scoring: a sum of the individual score of the above five experiments is calculated; 15 scores denote normal mice and 0 denote dead mice.
# JAM-1 = assay: Western blotting of JAM-1, endothelial cells after hypoxia/reoxygenation; assay type: cell-based; details: rat brain endothelial cells, hypoxia 4.5 h/reoxygenation 3 h; tPA 20 mcg/ml alone (model group); T541 400 mcg/ml + tPA 20 mcg/ml
# From the text: as §1
substance,measurement,setting,value
tPA: tissue-type plasminogen activator (tPA) for thrombolysis,Bax,Bax,2.44 ± 0.51
same,Bax/Bcl-2,Bax,4.57 ± 0.75
same,VE-cadherin/β-actin,VE-cadherin,0.53 ± 0.07
same,"Neurological scoring, 15-score standard",[1],5.82 ± 0.52
same,JAM-1/β-actin,JAM-1,0.64 ± 0.05

# Reference: patent publication US20210038668A1, “TRADITIONAL CHINESE MEDICINE COMPOSITION FOR PREVENTING AND/OR TREATING ISCHEMIC REPERFUSION INJURY” (TASLY PHARMACEUTICAL GROUP CO., LTD., priority 2018, published 2021)
